Laboratory results taken from ChEMBL document CHEMBL1151108, “Plant antimutagenic agents, 1. General bioassay and isolation procedures” (J Nat Prod, 1988).

Tests used:
Salmonella typhimurium [1] = test: Toxicity in Salmonella Typhimurium TA98 at 300 ug/plate in presence of liver S9 fraction by Ames test; type: organism-based; conditions: salmonella enterica subsp. enterica serovar typhimurium
Salmonella typhimurium [2] = test: Toxicity in Salmonella Typhimurium TA98 at 150 ug/plate in presence of liver S9 fraction by Ames test; type: organism-based; conditions: salmonella enterica subsp. enterica serovar typhimurium

Compound: C=C1CCC[C@]2(C)C[C@H]3OC(=O)[C@@H](C)[C@H]3C[C@@H]12 [DIHYDROISOALANTOLACTONE]
- Activity (Salmonella typhimurium [1]): Non-toxic
- Activity (Salmonella typhimurium [2]): Non-toxic

Compound: C=C1C(=O)O[C@@H]2C[C@@]3(C)CCCC(=C)[C@@H]3C[C@H]12 [ISOALANTOLACTONE]
- Activity (Salmonella typhimurium [1]): Toxic
- Activity (Salmonella typhimurium [2]): Toxic
